Laboratory results as given in patent US20090131320A1, “PEPTIDES MODULATING THE ACTIVITY OF THE ENGRAILED TRANSCRIPTION FACTOR” (Centre National De La Recherche Scient., priority 2003, published 2009).
Entries after “also recorded” stand apart in the source; their conditions may differ.

T1: chick Engrailed-2 protein (Gallus gallus, UniProt Q05917)
T1 construct: expressed in transfected cells; host or cells: CHP100 neuroepithelial cell line, electroporated with pCL9mEn2
T1 sequence (Q05917 1-289): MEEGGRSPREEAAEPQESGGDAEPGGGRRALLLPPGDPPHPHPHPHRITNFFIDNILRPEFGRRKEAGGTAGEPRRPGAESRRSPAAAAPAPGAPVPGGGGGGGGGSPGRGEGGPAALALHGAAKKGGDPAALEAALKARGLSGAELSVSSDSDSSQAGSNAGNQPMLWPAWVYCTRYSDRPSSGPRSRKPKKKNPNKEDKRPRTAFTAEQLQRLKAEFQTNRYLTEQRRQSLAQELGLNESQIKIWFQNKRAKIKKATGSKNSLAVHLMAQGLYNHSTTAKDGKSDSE

T2: HDEn2C (chick Engrailed-2 protein from which amino acids 10 to 185 have been deleted) (Gallus gallus, UniProt Q05917, DEL10-185)
T2 construct: expressed in transfected cells; host or cells: CHP100 neuroepithelial cell line, electroporated with pCL9 mHDEn2C
T2 sequence (Q05917 with tags, fused parts or gaps DEL10-185): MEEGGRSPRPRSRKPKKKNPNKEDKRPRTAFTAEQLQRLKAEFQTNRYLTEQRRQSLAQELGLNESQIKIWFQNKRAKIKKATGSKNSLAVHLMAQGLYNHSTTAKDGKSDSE

B1: Engrailed-2: whole chick Engrailed-2 protein expressed from pCL9mEn2 under the CMV promoter (protein)
chain: MEEGGRSPREEAAEPQESGGDAEPGGGRRALLLPPGDPPHPHPHPHRITNFFIDNILRPEFGRRKEAGGTAGEPRRPGAESRRSPAAAAPAPGAPVPGGGGGGGGGSPGRGEGGPAALALHGAAKKGGDPAALEAALKARGLSGAELSVSSDSDSSQAGSNAGNQPMLWPAWVYCTRYSDRPSSGPRSRKPKKKNPNKEDKRPRTAFTAEQLQRLKAEFQTNRYLTEQRRQSLAQELGLNESQIKIWFQNKRAKIKKATGSKNSLAVHLMAQGLYNHSTTAKDGKSDSE

How the values were obtained:
[1] = system: MAP1B promoter; assay: MAP1B promoter luciferase reporter (pMAP-luc) in CHP 100 cells, protein or peptide alone; assay type: cell-based; conditions: luciferase 24 hours after transfection
Protocol: (§1) The transcriptional activity of Engrailed is evaluated as described by Montesinos et al. (J. Neurosci., 21, 3350-9, 2001), by measuring the expression of the luciferase reporter gene placed in the plasmid pMAP-luc under the control of a promoter that is a target for Engrailed, the MAP1B (microtubule-associated protein 1B) promoter.
(§2) Cells of the neuroepithelial line CHP 100 (Schlesinger et al, Cancer Res. 36, […], 1976) are cultured in RPMI 1640 (Life Technologies, Gaithersburg, Md.) supplemented with 16 mM glucose, 15% fetal calf serum, 5 U/ml of penicillin and 5 μg/ml of streptomycin, and cotransfected by electroporation with pMAP-luc and one of the following vectors:
(§3) pCL9mEn2 (Mainguy et al., Natural Biotechnol. 18: 746-749, 2000) which contains the sequence encoding the whole chick Engrailed-2 protein, under the control of the CMV promoter;
pCL9mEn2ΔH1 (Joliot et al., Curr Biol. 8: 856-863, 1998), which contains the sequence encoding the chick Engrailed-2 protein from which amino acids 36 to 46 of the homeodomain (DNA-binding sequence) have been deleted, under the control of the CMV promoter;
(§4) pCL9 mHDEn2C, which contains the sequence encoding the chick Engrailed-2 protein from which amino acids 10 to 185 have been deleted, under the control of the CMV promoter.
(§5) The electroporation is carried out with a maximum of 10 μg of plasmid DNA (2 μg of reporter plasmid pMAP-luc+variable amounts of En2 expression vector) per 8×10^5 cells in 350 μl of medium, at 1050 μF and at […]. 400 μl of medium are then added and the combination is allowed to stand for 10 min. The cells are then placed in culture, after washing, in two dishes (3.5 cm diameter).
(§6) The luciferase activity is assayed 24 hours after transfection. The cells are rinsed with PBS. Lysis buffer (20 mM Tris/H3PO4, pH 7.8, 10 mM MgCl2, 15% glycerol, 1 mM EDTA, 1% Triton-X 100, 1.25 mM ATP, 10 μg/ml luciferin) is added to the cells. After incubation at 4° C. for 30 min, the luciferase activity is measured by luminometry (Berthold Lumat LB 9501 luminometer).

[2] = target: T1, chick Engrailed-2 protein; assay: Effect of peptides on activation of the MAP1B promoter by Engrailed-2 in CHP100 cells (luciferase); assay type: cell-based; conditions: for effect on the activation of MAP1B by Engrailed (in words): peptide + En2 cotransfected
Protocol: as §1, §2, §3, §5, §6
The CHP100 cells are cotransfected by electroporation, as defined above, with pMAP-luc (2 μg), pCL9mEn2 or pCL9 mHDEn2C (4 μg) and 4 μg of pCS2-pep1 or pCS2-pep2.

[3] = system: Engrailed; assay: In vivo effect on the transcriptional activity of Engrailed, pMAP-lacZ β-galactosidase reporter in the neural tube of chick embryos; conditions: chick embryo neural tube HH8-HH10, electroporation, 24 h
Protocol: The effect of pep1 or pep2 on the transcriptional activity of Engrailed was evaluated by measuring the expression of the β-galactosidase reporter gene placed in the plasmid pMAP-lacZ (described by Montesinos et al., 2001, mentioned above) under the control of the MAP1B promoter, in the neural tube of chick embryos at the HH8-HH10 stage.
The vectors pCS2-pep1 or pCS2-pep2, and also the vector pMAP-lacZ vector (each vector is used at a concentration of 1 μg/μl), were introduced by electroporation into the neural tube of chick embryos at the HH8-HH10 stage in accordance with the protocol of Muramatsu et al. (1997), with a BTX ECM 830 electroporator (4 pulses of 25 V and 50 msec) (Genetronics, San Diego, Calif.). The vectors were injected into the neural tube using a micropipette.

[4] = system: Engrailed; assay: Effect of peptides on the activity of Engrailed in primary cultures of mesencephalic neurons (pMAP-luc); assay type: cell-based; conditions: primary mouse embryonic mesencephalic neurons; for effect on the activation of the MAP1B promoter in neurons: endogenous Engrailed
Protocol: In order to verify the functionality of peptides 1 and 2 in a physiological cellular context, the effect of these peptides was tested in primary cultures of mouse embryonic mesencephalic neurons.
Fragments of mouse mesencephalon (embryonic day 13.5) are incubated at 24° C. for 5 min in trypsin-EDTA, then washed in a phosphate buffer, pH 7.5, supplemented with 33 mM glucose (PBS) and 10% fetal calf serum, and subsequently incubated at 37° C. for 10 min in […] of DnaseI (Sigma, Saint Louis, Mo.). The cells are dissociated mechanically, washed three times with PBS, and placed in culture at a density of 200 000 cells/cm^2, in wells pre-saturated with D,L-poly-ornithine (1.5 μg/ml) and laminin (5 μg/ml). The culture medium (MMS) consists of DMEM/F12 (1/1, Life Technologies, Cergy, France), with 33 mM glucose, 2 mM glutamine, 10 mM HEPES, pH 7.4, 9 mM NaHCO^−3, 5 U/ml of penicillin and 5 μg/ml of streptomycin. Added to MSS are 0.1% of ovalbumin, 25 μg/ml of insulin, 100 μg/ml of transferrin, 20 nM of progesterone, 60 μM of putrescine and 30 nM selenium (M2OV).
The day after the cells were placed in culture, the medium, in each well, is replaced with 600 μl of MSS, without penicillin or streptomycin. 100 μl of the transfection mixture comprising pMAP-luc (0.5 μg) and 0.5 μg of pCS2-pep1 or pCS2-pep2, and 1 mg/ml of Lipofectamine 2000 (Invitrogen) in OPTI-MEM medium (qs 100 μl), mixed beforehand for 20 min at 24° C., are added to each well. The cells are then incubated at 37° C. for 2 h 30 min. The medium is then replaced with M20V.

[5] = target: T2, HDEn2C (chick Engrailed-2 protein from which amino acids 10 to 185 have been deleted); assay: Effect of peptides on activation of the MAP1B promoter by HDEn2C (Engrailed homeodomain) in CHP100 cells (luciferase); assay type: cell-based; conditions: HDEn2C + peptide cotransfected
Protocol: as §1, §2, §4
as §5, with “The cells are then placed in culture, after washing, in two dishes (3.5 cm diameter).” left out
The luciferase activity is assayed 24 hours after transfection. […] After incubation at 4° C. for 30 min, the luciferase activity is measured by luminometry (Berthold Lumat LB 9501 luminometer). […]

Row | Molecule | activation of the MAP1B promoter by the protein or peptide alone [1] | effect on the activation of MAP1B by Engrailed (in words) [2] | effect on the activation of the MAP1B promoter in vivo (β-galactosidase) [3] | increase of the activation of MAP1B by Engrailed ([2]; peptide introduced at the same time as Engrailed-2 (4 μg each vector)) | effect on the activation of the MAP1B promoter in neurons [4] | effect on the activation of MAP1B by the HDEn2C peptide [5] | activating effect compared with peptide 1 in neurons [4]
1 | HOXA5: another homeodomain protein | activated |  |  |  |  |  | 
2 | KVWDIRYTTPHA [aOTX2, reference compound] |  | does not modify |  |  |  |  | 
3 | SWWETQLIASSG [Peptide 1] | no action | activating effect | increased | approximately 50% | increased | greatly increased | 
4 | WSWNEEVWFPFT [Peptide 2] | no effect | inhibitor; also recorded: inhibitory effect | increases the activation |  | increased | increases the activation | greater than that of peptide 1
5 | B1 | capable of activating |  |  |  |  |  | 
